Experimental data: ChEMBL document CHEMBL1641512, “Lyconadins D and E, and complanadine E, new Lycopodium alkaloids from Lycopodium complanatum” (Bioorg Med Chem, 2011)
The source made the active and inactive calls. The calls are words filed in the database; no cut-off is given here.

Experiments:
Format in all cases: cell-based
[1] = target: Beta-nerve growth factor (Homo sapiens) (UniProt P01138); experiment: Induction of neurotrophic factor mRNA expression in human 1321N1 cells at 100 uM by RT-PCR analysis
[2] = target: Beta-nerve growth factor (Homo sapiens) (UniProt P01138); experiment: Induction of neurotrophic factor mRNA expression in human 1321N1 cells at 100 uM by RT-PCR analysis relative to beta-actin mRNA expression
[3] = target: Beta-nerve growth factor (Homo sapiens) (UniProt P01138); experiment: Induction of neurotrophic factor mRNA expression in human 1321N1 cells by RT-PCR analysis

Sequence of Beta-nerve growth factor (Homo sapiens) (P01138 122-241 limits assumed): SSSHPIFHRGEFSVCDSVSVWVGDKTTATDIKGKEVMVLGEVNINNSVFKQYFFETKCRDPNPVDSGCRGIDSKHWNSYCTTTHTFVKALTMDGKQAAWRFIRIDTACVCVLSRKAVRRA

| Compound | Activity [1] | fold change (FC) [2] | Activity [3] |
| --- | --- | --- | --- |
| C[C@@H]1CC2=C3NC(=O)CC[C@]34C[C@]3(C1)[C@H]2C[C@@H]4CN3C | inactive |  |  |
| C[C@@H]1C[C@H]2C[C@H]3N[C@H](c4cnc5c(c4)[C@@]46C[C@H](C)C[C@@H](C5)[C@H]4CCCN6)CC[C@H]3[C@]3(C1)NCCC[C@H]23 |  | 2.8 |  |
| C[C@@H]1CC2=C3NC(=O)CC[C@]34C[C@@]3(C1)NC[C@H]4C[C@@H]23 | inactive |  |  |
| C[C@@H]1C[C@H]2CC3=C(CC[C@H](c4cnc5c(c4)[C@@]46C[C@H](C)C[C@@H](C5)[C@H]4CCCN6)N3)[C@]3(C1)NCCC[C@H]23 |  | 2.4 |  |

The remaining lines, values ahead:

| Activity [1] | fold change (FC) [2] | Activity [3] | Compound |
| --- | --- | --- | --- |
|  | 3.9 | Dose-dependent effect | C[C@@H]1C[C@H]2Cc3ncc(-c4ccc5c(n4)C[C@@H]4C[C@@H](C)C[C@]56NCCC[C@H]46)cc3[C@]3(C1)NCCC[C@H]23 |
|  | 2.3 |  | C[C@@H]1C[C@H]2Cc3ncc(-c4ccc5c(n4)C(=O)[C@@H]4C[C@@H](C)C[C@]56NCCC[C@H]46)cc3[C@]3(C1)NCCC[C@H]23 |
